In ChEMBL document CHEMBL1201862, “PubChem BioAssay data set” (2004):
Values joined by “and” are separate entries in the source; they are usually repeats but may differ in a detail not shown here. Identical values can stand only once.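 Five concentrations, 48 hours, 96-well plates. Here, GI50 denotes the concentration required for 50% inhibition of growth.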 Active and inactive are the calls of the source. Rule as the data show it: active = GI50 up to about 1.1 µM and inactive = higher.

How the values were obtained:
Assay in all cases: DTP human tumour cell line panel, 48 h
A498 = test system: A498
COLO 205 = test system: COLO 205
HCC 2998 = test system: HCC 2998
HT-29 = test system: HT-29
MCF7 = test system: MCF7
MDA-MB-231 = test system: MDA-MB-231
MDA-MB-435 = test system: MDA-MB-435
MOLT-4 = test system: MOLT-4
Malme-3M = test system: Malme-3M
NCI-H522 = test system: NCI-H522
NCI/ADR-RES = test system: NCI/ADR-RES
SK-MEL-28 = test system: SK-MEL-28
SK-MEL-2 = test system: SK-MEL-2
SK-OV-3 = test system: SK-OV-3
SN12C = test system: SN12C
SNB-19 = test system: SNB-19
SNB-75 = test system: SNB-75
SR = test system: SR
U-251 = test system: U-251
UO-31 = test system: UO-31

SMILES	GI50 (A498)	GI50 (COLO 205)	GI50 (HCC 2998)	GI50 (HT-29)	GI50 (MCF7)	GI50 (MDA-MB-231)	GI50 (MDA-MB-435)	GI50 (MOLT-4)	GI50 (Malme-3M)	GI50 (NCI-H522)	GI50 (NCI/ADR-RES)	GI50 (SK-MEL-28)	GI50 (SK-MEL-2)	GI50 (SK-OV-3)	GI50 (SN12C)	GI50 (SNB-19)	GI50 (SNB-75)	GI50 (SR)	GI50 (U-251)	GI50 (UO-31)
Cn1c(=O)nc2n(-c3ccc(Cl)cc3)c3cc(Cl)ccc3nc-2c1=O	14.3 µM (inactive)	2.11 µM (inactive)	4.49 µM (inactive)	2.62 µM (inactive)	0.577 µM (active)	3.17 µM (inactive)	1.68 µM (inactive)	3.61 µM (inactive)	1.89 µM (inactive)	2.99 µM (inactive)	8.51 µM (inactive)	3.2 µM (inactive)	2.55 µM (inactive)	18.3 µM (inactive)	6.21 µM (inactive)	14.3 µM (inactive)	7.14 µM (inactive)	3.93 µM (inactive)	17.7 µM (inactive)	11.4 µM (inactive)
C[C@]12OC(=O)[C@]3(O)CC[C@H]4[C@@H](C[C@@H](O)[C@@]5(Cl)CC=CC(=O)[C@]45C)[C@]45OCC6C(=O)O[C@@H]1C[C@@]6(C)[C@H](C4=O)[C@@]32O5 (stereo not given in full)	1.37 µM (inactive)	0.867 µM (active)	0.0946 µM (active)	1.55 µM (inactive)	0.774 µM (active)	3.02 µM (inactive)	2 µM (inactive)	0.615 µM (active)	1.3 µM (inactive)	0.16 µM (active)	2.6 µM (inactive)	1.49 µM (inactive)	1.17 µM (inactive)	3.5 µM (inactive)	1.86 µM (inactive)	5.73 µM (inactive)	9.31 µM (inactive)	0.811 µM (active)	1.5 µM (inactive)	1.23 µM (inactive)
O=C(NNC(=S)Nc1ccccc1)C12CC3CC(CC(C3)C1)C2	21.1 µM (inactive)	20.7 µM (inactive)	30.9 µM (inactive)	21.3 µM (inactive)	19.2 µM (inactive)	40 µM (inactive)	23.7 µM (inactive)	10 µM (inactive)	20 µM (inactive)	28.1 µM (inactive)	15.5 µM (inactive)	21.9 µM (inactive)	22.1 µM (inactive)	41.4 µM (inactive)	24.5 µM (inactive)	25.4 µM (inactive)	29.4 µM (inactive)	0.252 µM (active)	12.9 µM (inactive)	4.58 µM (inactive)
COc1cc(C(=O)OC2CC(C)=CC[C@@]3(C)CC[C@](O)(C(C)C)C23)ccc1O (stereo not given in full)	18.9 µM (inactive)	20 µM (inactive)	14.5 µM (inactive)	15.9 µM (inactive)	12.4 µM (inactive)	15 µM (inactive)	40.5 µM (inactive)	13.2 µM (inactive)	18.6 µM (inactive)	14.3 µM (inactive)	15.4 µM (inactive)	30.3 µM (inactive)	16.4 µM (inactive)	15.4 µM (inactive)	18.4 µM (inactive)	19.2 µM (inactive)	18.7 µM (inactive)	25.5 µM (inactive)	31.3 µM (inactive)	16.4 µM (inactive)
C=C(Cl)C(Cl)(CBr)CCC(Br)C(C)(C)Cl (stereo not given)	1.63 µM (inactive) and 2.79 µM (inactive) and 2.03 µM (inactive)	1.72 µM (inactive) and 2.95 µM (inactive) and 14.5 µM (inactive)	3.15 µM (inactive) and 2.61 µM (inactive) and 1.59 µM (inactive)	497 nM (active) and 828 nM (active) and 735 nM (active)	1.26 µM (inactive) and 2.54 µM (inactive) and 220 nM (active)	8.36 µM (inactive) and 1.22 µM (inactive) and 1.95 µM (inactive)	2.18 µM (inactive) and 11.1 µM (inactive) and 1.77 µM (inactive)	20.6 µM (inactive) and 10.1 µM (inactive) and 13.5 µM (inactive)	13.6 µM (inactive) and 15.3 µM (inactive) and 7.36 µM (inactive)	16 µM (inactive) and 13.8 µM (inactive) and 14.3 µM (inactive)	12 µM (inactive) and 2.44 µM (inactive) and 1.83 µM (inactive)	1.73 µM (inactive) and 11.5 µM (inactive) and 2.28 µM (inactive)	1.31 µM (inactive)	2.36 µM (inactive) and 27.2 µM (inactive)	14.7 µM (inactive) and 4.2 µM (inactive) and 6.62 µM (inactive)	2.41 µM (inactive) and 863 nM (active) and 3.49 µM (inactive)	1.64 µM (inactive) and 834 nM (active) and 416 nM (active)	11.5 µM (inactive) and 4.53 µM (inactive) and 15 µM (inactive)	277 nM (active) and 1.41 µM (inactive) and 615 nM (active)	1.85 µM (inactive) and 6.27 µM (inactive) and 1.99 µM (inactive)
O=C(CCCl)NN=C1NCCN1	> 100 µM (inactive)	> 100 µM (inactive)	> 100 µM (inactive)	> 100 µM (inactive)	> 100 µM (inactive)	> 100 µM (inactive)	> 100 µM (inactive)	> 100 µM (inactive)	> 100 µM (inactive)	> 100 µM (inactive)	> 100 µM (inactive)	> 100 µM (inactive)	> 100 µM (inactive)	> 100 µM (inactive)	> 100 µM (inactive)	> 100 µM (inactive)	> 100 µM (inactive)	> 100 µM (inactive)	> 100 µM (inactive)	> 100 µM (inactive)
